Stability of hydroxyurea data for 1 compound are collected here from US20090317466A1, “Fixed dose pharmaceutical composition comprising hyroxyurea and didanosine” (priority 2008, published 2009).

The data set in a line: Stability of hydroxyurea on removal of citric acid from the composition. The format is physicochemical. The following applies: removal of the stabilizer citric acid from the composition. From the text:
The commercially available hydroxyurea tablets contain citric acid.

Each structure is given as a SMILES string.

As for `NC(=O)NO` [hydroxyurea], the stability of hydroxyurea result is “not significantly affected”.
